Data reported in patent US20250326744A1, “PIPERAZINE DERIVATIVE OR SALT THEREOF, AND PHARMACEUTICAL COMPOSITION” (priority 2022, published 2025).
Where a name gives a salt, the structure may show the parent alone.

Columns and labels:
S-3769 strain = test: Combinational effect with antibacterial agent against Pseudomonas aeruginosa (Test Examples 2 and 4): S-3769 strain with AMK or GM at 1/4 MIC, EC99; type: cell-based; details: S-3769 strain, Test Example 4; for EC99, combinational effect with AMK, S-3769 strain: combined with AMK at 1/4 MIC; for EC99, combinational effect with GM, S-3769 strain: combined with GM at 1/4 MIC
Method in brief: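 EC99, the lowest test-compound concentration inhibiting growth by ≥99% (OD595), was measured with aminoglycoside AMK or GM held at ¼ MIC. Strain S-3769, a MexY-overexpressing clinical isolate, was cultured in CAMHB at 10^4 to 5 CFU/well for 16–20 h; compound range 0–800 μM.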

mexB (PA) strain = test: Combinational effect with antibacterial agent against Pseudomonas aeruginosa (Test Examples 2 and 4): mexB (PA) strain with LVFX, TC or AZT at 1/4 MIC, EC99; type: cell-based; details: mexB (PA) strain, Test Example 4; for EC99, combinational effect with AZT, mexB (PA): combined with AZT at 1/4 MIC; for EC99, combinational effect with LVFX, mexB (PA): combined with LVFX at 1/4 MIC; for EC99, combinational effect with TC, mexB (PA): combined with TC at 1/4 MIC
Method in brief: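 EC99 denotes the minimum test-compound concentration (range 0–800 μM) that suppresses ≥99% of growth, measured by OD595, when combined with ¼ MIC levofloxacin (LVFX), tetracycline or aztreonam. The efflux-pump mutant mexB (PA), expressing mainly MexAB-OprM, was inoculated at 10^4–5 CFU/well in CAMHB for 16–20 h.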

Compound | EC99, combinational effect with AMK, S-3769 strain (S-3769 strain) | EC99, combinational effect with GM, S-3769 strain (S-3769 strain) | EC99, combinational effect with AZT, mexB (PA) (mexB (PA) strain) | EC99, combinational effect with LVFX, mexB (PA) (mexB (PA) strain) | EC99, combinational effect with TC, mexB (PA) (mexB (PA) strain)
CCSc1cc(F)ccc1CN1CCN(C(=O)[C@H](N)C2CCN(CCc3cc(Cl)ccc3-c3ccccc3O)CC2)CC1 [Example 594, Hydrochloride of (R)-2-amino-2-(1-(2-(4-chloro-2′-hydroxy-[1,1-biphenyl]-2-yl)ethyl)piperidin-4-yl)-1-(4-(2-(ethylthio)-4-fluorobenzyl)piperazin-1-yl) ethan-1-one] | S (EC99≤12.5 μM) | A (12.5 μM<EC99≤25 μM) | S (EC99≤12.5 μM) | A (12.5 μM<EC99≤25 μM) | S (EC99≤12.5 μM)
CCOc1cccc(F)c1CN1CCN(C(=O)[C@H](N)C2CCN(CCc3cc(Cl)ccc3-c3cccc(O)c3F)CC2)CC1 [Example 595, Hydrochloride of (R)-2-amino-2-(1-(2-(4-chloro-2-fluoro-3′-hydroxy-[1,1-biphenyl]-2-yl)ethyl)piperidin-4-yl)-1-(4-(2-ethoxy-6-fluorobenzyl)piperazin-1-yl)ethan-1-one] | S (EC99≤12.5 μM) | A (12.5 μM<EC99≤25 μM) | S (EC99≤12.5 μM) | S (EC99≤12.5 μM) | S (EC99≤12.5 μM)
CCOc1cccc(F)c1CN1CCN(C(=O)[C@H](N)C2CCN(CCc3cc(O)ccc3-c3ccccc3)CC2)CC1 [Example 596, Hydrochloride of (R)-2-amino-1-(4-(2-ethoxy-6-fluorobenzyl)piperazin-1-yl)-2-(1-(2-(4-hydroxy-[1,1′-biphenyl]-2-yl)ethyl)piperidin-4-yl)ethan-1-one] | S (EC99≤12.5 μM) | A (12.5 μM<EC99≤25 μM) | C (100 μM<EC99) | B (25 μM<EC99≤100 μM) | B (25 μM<EC99≤100 μM)
CCSc1cc(F)ccc1CN1CCN(C(=O)[C@H](N)C2CCN(CCc3cc(Cl)ccc3C3=CCNCC3)CC2)CC1 [Example 597, hydrochloride of (R)-2-amino-2-(1-(5-chloro-2-(1,2,3,6-tetrahydropyridin-4-yl)phenethyl)piperidin-4-yl)-1-(4-(2-(ethylthio)-4-fluorobenzyl)piperazin-1-yl)ethan-1-one] | S (EC99≤12.5 μM) | S (EC99≤12.5 μM) | B (25 μM<EC99≤100 μM) | S (EC99≤12.5 μM) | S (EC99≤12.5 μM)
CCSc1cc(F)ccc1CN1CCN(C(=O)[C@H](N)C2CCN(CCc3cc(Cl)ccc3-c3ccccc3F)CC2)CC1 [Example 598, Hydrochloride of (R)-2-amino-2-(1-(2-(4-chloro-2′-fluoro-[1,1-biphenyl]-2-yl)ethyl)piperidin-4-yl)-1-(4-(2-(ethylthio)-4-fluorobenzyl)piperazin-1-yl) ethan-1-one] | A (12.5 μM<EC99≤25 μM) | S (EC99≤12.5 μM) | S (EC99≤12.5 μM) | S (EC99≤12.5 μM) | S (EC99≤12.5 μM)
CSc1ccccc1CN1CCN(C(=O)[C@H](N)C2CCN(CCc3cc(Cl)ccc3-c3cccc(N)c3)CC2)CC1 [Example 600, Hydrochloride of (R)-2-amino-2-(1-(2-(3′-amino-4-chloro-[1,1-biphenyl]-2-yl)ethyl)piperidin-4-yl)-1-(4-(2-(methylthio)benzyl)piperazin-1-yl)ethan-1-one] | A (12.5 μM<EC99≤25 μM) | A (12.5 μM<EC99≤25 μM) | S (EC99≤12.5 μM) | S (EC99≤12.5 μM) | S (EC99≤12.5 μM)
CSc1ccccc1CN1CCN(C(=O)[C@H](N)C2CCN(CCc3cc(Cl)ccc3-c3ccccc3F)CC2)CC1 [Example 601, Hydrochloride of (R)-2-amino-2-(1-(2-(4-chloro-2′-fluoro-[1,1-biphenyl]-2-yl)ethyl)piperidin-4-yl)-1-(4-(2-(methylthio)benzyl)piperazin-1-yl) ethan-1-one] | B (25 μM<EC99≤100 μM) | B (25 μM<EC99≤100 μM) | A (12.5 μM<EC99≤25 μM) | A (12.5 μM<EC99≤25 μM) | A (12.5 μM<EC99≤25 μM)
CSc1ccccc1CN1CCN(C(=O)[C@H](N)C2CCN(CCc3cc(Cl)ccc3C3=CCNCC3)CC2)CC1 [Example 602, Hydrochloride of (R)-2-amino-2-(1-(5-chloro-2-(1,2,3,6-tetrahydropyridin-4-yl)phenethyl)piperidin-4-yl)-1-(4-(2-(methylthio)benzyl)piperazin-1-yl) ethan-1-one] | S (EC99≤12.5 μM) | S (EC99≤12.5 μM) | B (25 μM<EC99≤100 μM) | S (EC99≤12.5 μM) | S (EC99≤12.5 μM)
CCSc1cc(F)ccc1CN1CCN(C(=O)[C@H](N)C2CCN(CCc3cc(Cl)ccc3-c3ccccc3N)CC2)CC1 [Example 604, Hydrochloride of (R)-2-amino-2-(1-(2-(2′-amino-4-chloro-[1,1-biphenyl]-2-yl)ethyl)piperidin-4-yl)-1-(4-(2-(ethylthio)-4-fluorobenzyl)piperazin-1-yl) ethan-1-one] | A (12.5 μM<EC99≤25 μM) | A (12.5 μM<EC99≤25 μM) | S (EC99≤12.5 μM) | S (EC99≤12.5 μM) | S (EC99≤12.5 μM)
CCSc1cc(F)ccc1CN1CCN(C(=O)[C@H](N)C2CCN(CCc3cc(Cl)ccc3C3=CCCNC3)CC2)CC1 [Example 605, Hydrochloride of (R)-2-amino-2-(1-(5-chloro-2-(1,2,5,6-tetrahydropyridin-3-yl)phenethyl)piperidin-4-yl)-1-(4-(2-(cthylthio)-4-fluorobenzyl)piperazin-1-yl) ethan-1-one] | S (EC99≤12.5 μM) | S (EC99≤12.5 μM) | B (25 μM<EC99≤100 μM) | S (EC99≤12.5 μM) | S (EC99≤12.5 μM)
CCSc1cc(F)ccc1CN1CCN(C(=O)[C@H](N)C2CCN(CCc3cc(Cl)ccc3-c3cc(N)cc(F)c3)CC2)CC1 [Example 606, Hydrochloride of (R)-2-amino-2-(1-(2-(3′-amino-4-chloro-5′-fluoro-[1,1-biphenyl]-2-yl)ethyl)piperidin-4-yl)-1-(4-(2-(ethylthio)-4-fluorobenzyl)piperazin-1-yl)ethan-1-one] | B (25 μM<EC99≤100 μM) | B (25 μM<EC99≤100 μM) | S (EC99≤12.5 μM) | S (EC99≤12.5 μM) | S (EC99≤12.5 μM)
CCSc1cc(F)ccc1CN1CCN(C(=O)[C@H](N)C2CCN(CCc3cc(Cl)ccc3-c3cccc(NC)c3)CC2)CC1 [Example 607, Hydrochloride of (R)-2-amino-2-(1-(2-(4-chloro-3′-(methylamino)-[1,1-biphenyl]-2-yl)ethyl)piperidin-4-yl)-1-(4-(2-(ethylthio)-4-fluorobenzyl)piperazin-1-yl)ethan-1-one] | B (25 μM<EC99≤100 μM) | B (25 μM<EC99≤100 μM) | S (EC99≤12.5 μM) | S (EC99≤12.5 μM) | S (EC99≤12.5 μM)
CCSc1cc(F)ccc1CN1CCN(C(=O)[C@H](N)C2CCN(CCc3cscc3-c3ccccc3)CC2)CC1 [Example 608, Hydrochloride of (R)-2-amino-1-(4-(2-(ethylthio)-4-fluorobenzyl)piperazin-1-yl)-2-(1-(2-(4-phenylthiophen-3-yl)ethyl)piperidin-4-yl)ethan-1-one] | B (25 μM<EC99≤100 μM) | B (25 μM<EC99≤100 μM) | B (25 μM<EC99≤100 μM) | B (25 μM<EC99≤100 μM) | B (25 μM<EC99≤100 μM)
CCSc1cc(F)ccc1CN1CCN(C(=O)[C@H](N)C2CCN(CCc3cc(Cl)ccc3-c3cc(O)cc(F)c3)CC2)CC1 [Example 609, (R)-2-amino-2-(1-(2-(4-chloro-3′-fluoro-5′-hydroxy-[1,1′-biphenyl]-2-yl)ethyl)piperidin-4-yl)-1-(4-(2-(ethylthio)-4-fluorobenzyl)piperazin-1-yl)ethan-1-one] | S (EC99≤12.5 μM) | S (EC99≤12.5 μM) | S (EC99≤12.5 μM) | S (EC99≤12.5 μM) | S (EC99≤12.5 μM)
